Counter-ions that a name gives are not always drawn.
These compounds were tested against T1, Recombinant Human SSAO/VAP-1/AOC3 (Homo sapiens, UniProt Q16853) (assay: Human Semicarbazide-Sensitive Amine Oxidase (SSAO) Assay). Settings: recombinant enzyme, 30 minutes preincubation at 37° C., benzylamine substrate, Amplex Ultra Red/HRP fluorescence.
T1 construct: purchased R&D systems 3957-AO
T1 sequence (Q16853 1-763): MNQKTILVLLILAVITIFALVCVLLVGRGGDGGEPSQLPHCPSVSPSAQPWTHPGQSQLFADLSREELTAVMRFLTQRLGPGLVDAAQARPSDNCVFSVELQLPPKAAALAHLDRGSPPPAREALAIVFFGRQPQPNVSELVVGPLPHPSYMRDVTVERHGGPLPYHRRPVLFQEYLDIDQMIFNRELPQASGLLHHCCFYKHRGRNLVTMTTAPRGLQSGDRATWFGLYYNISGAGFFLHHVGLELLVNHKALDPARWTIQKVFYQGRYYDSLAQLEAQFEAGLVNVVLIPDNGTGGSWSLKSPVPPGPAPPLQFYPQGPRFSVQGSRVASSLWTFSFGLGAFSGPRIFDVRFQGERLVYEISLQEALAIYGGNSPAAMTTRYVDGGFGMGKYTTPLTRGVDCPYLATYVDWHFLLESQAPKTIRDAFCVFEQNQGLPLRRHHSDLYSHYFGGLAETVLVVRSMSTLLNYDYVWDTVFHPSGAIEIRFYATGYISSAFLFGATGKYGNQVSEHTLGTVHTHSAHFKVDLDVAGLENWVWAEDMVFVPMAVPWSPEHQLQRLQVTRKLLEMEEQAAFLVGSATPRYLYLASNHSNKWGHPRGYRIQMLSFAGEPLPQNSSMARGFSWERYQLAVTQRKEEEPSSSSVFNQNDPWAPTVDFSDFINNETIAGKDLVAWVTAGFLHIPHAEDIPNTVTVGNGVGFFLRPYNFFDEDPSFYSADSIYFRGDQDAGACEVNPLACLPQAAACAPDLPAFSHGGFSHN
Assay type: biochemical
In short: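 Recombinant human SSAO/VAP-1 (2.5 μg/ml working stock in 50 mM HEPES) preincubated with compound 30 min at 37 °C over a 6-10 point CRC. Benzylamine substrate starts the reaction. H2O2 read kinetically over 30-120 min via Amplex Ultra Red/HRP fluorescence (ex 544/em 590 nm) to derive IC50.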

Row | IC50 | SMILES
1 | ≤ 0.01 µM | NC/C(=C\F)COc1ccc(C23CCCC(C(=O)NC4CCOCC4)(CC2)CC3)cc1 [Compound 10.01, (E)-5-(4-((2-(Aminomethyl)-3-fluoroallyl)oxy)phenyl)-N-(tetrahydro-2H-pyran-4-yl)bicyclo[3.2.2]nonane-1-carboxamide Hydrochloride]
2 | ≤ 0.01 µM | Cc1nnc(C23CCC(c4ccc(OC/C(=C/F)CN)cc4)(CC2)CC3)o1 [Compound 11, (2E)-3-fluoro-2-({4-[4-(5-methyl(1,3,4-oxadiazol-2-yl))bicyclo[2.2.2]octyl]phenoxy}methyl)prop-2-enylamine]
3 | ≤ 0.01 µM | NC/C(=C\F)COc1ccc(C23CCC(c4nnc(C5CC5)o4)(CC2)CC3)cc1 [Compound 11.01, (E)-2-((4-(4-(5-cyclopropyl-1,3,4-oxadiazol-2-yl)bicyclo[2.2.2]octan-1-yl)phenoxy)methyl)-3-fluoroprop-2-en-1-amine]
4 | ≤ 0.01 µM | NC/C(=C\F)COc1ccc(C23CCC(c4nnc(C5CCOCC5)o4)(CC2)CC3)cc1 [Compound 11.02, (E)-3-fluoro-2-((4-(4-(5-(tetrahydro-2H-pyran-4-yl)-1,3,4-oxadiazol-2-yl)bicyclo[2.2.2]octan-1-yl)phenoxy)methyl)prop-2-en-1-amine]

— US20200181104A1, “SSAO INHIBITORS AND USES THEREOF” (METACRINE, INC., priority 2018, published 2020)
